According to ChEMBL document CHEMBL1201862, “PubChem BioAssay data set” (2004):
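The compound was tested at five concentrations on cells cultured in 96-well plates, with a 48-hour exposure period. GI50 is the concentration that inhibits growth by half.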 The source made the active and inactive calls. No stated cut-off is given here; in the data, active = GI50 up to about 1.1 µM and inactive = higher.

What was measured:
Test in all cases: NCI anticancer screen, dose series, 48 h
HT-29 = test system: HT-29
DU-145 = test system: DU-145
HOP-92 = test system: HOP-92
Hs-578T = test system: Hs-578T
OVCAR-3 = test system: OVCAR-3
ACHN = test system: ACHN
Malme-3M = test system: Malme-3M
RPMI-8226 = test system: RPMI-8226
UACC-257 = test system: UACC-257
A498 = test system: A498
SN12C = test system: SN12C
PC-3 = test system: PC-3
UO-31 = test system: UO-31
NCI/ADR-RES = test system: NCI/ADR-RES
TK-10 = test system: TK-10
COLO 205 = test system: COLO 205
SNB-19 = test system: SNB-19
HCT-15 = test system: HCT-15
SK-OV-3 = test system: SK-OV-3
T47D = test system: T47D

SMILES	GI50 (HT-29)	GI50 (DU-145)	GI50 (HOP-92)	GI50 (Hs-578T)	GI50 (OVCAR-3)	GI50 (ACHN)	GI50 (Malme-3M)	GI50 (RPMI-8226)	GI50 (UACC-257)	GI50 (A498)	GI50 (SN12C)	GI50 (PC-3)	GI50 (UO-31)	GI50 (NCI/ADR-RES)	GI50 (TK-10)	GI50 (COLO 205)	GI50 (SNB-19)	GI50 (HCT-15)	GI50 (SK-OV-3)	GI50 (T47D)
O=C(O)c1c(CC(Cc2ccc3c(c2)CCC3)C(=O)O)ccc2c1CCC2 (stereo not given)	> 100 µM (inactive)	> 100 µM (inactive)	> 100 µM (inactive)	> 100 µM (inactive)	> 100 µM (inactive)	> 100 µM (inactive)	> 100 µM (inactive)	> 100 µM (inactive)	> 100 µM (inactive)	> 100 µM (inactive)	> 100 µM (inactive)	> 100 µM (inactive)	> 100 µM (inactive)	> 100 µM (inactive)	> 100 µM (inactive)	> 100 µM (inactive)	> 100 µM (inactive)	> 100 µM		
C=CCOC(=O)C1=C(CCC[C@@H](C)O[Si](C)(C)C(C)(C)C)N=C(N)N2[C@H](CCO)CC[C@@H]12		14.3 µM (inactive)	13.6 µM (inactive)		11.1 µM (inactive)	17.7 µM (inactive)	18 µM (inactive)	9.44 µM (inactive)	15.6 µM (inactive)	18 µM (inactive)	16.5 µM (inactive)	8.45 µM (inactive)	16.1 µM (inactive)	19.7 µM (inactive)	16.9 µM (inactive)	10.9 µM (inactive)	15.5 µM (inactive)	17.7 µM	14.1 µM (inactive)	11.8 µM (inactive)
N#CC(OC1OC(COC2OC(CO)C(O)C(O)C2O)C(O)C(O)C1O)c1ccccc1 (stereo not given)	> 225 µM (inactive)		> 225 µM (inactive)		> 225 µM (inactive)		> 225 µM (inactive)	> 225 µM (inactive)	> 225 µM (inactive)	> 225 µM (inactive)	> 225 µM (inactive)		> 225 µM (inactive)	> 225 µM (inactive)		> 225 µM (inactive)	> 225 µM (inactive)	> 225 µM	> 225 µM (inactive)	
COC(=O)Cn1c(=O)oc2nc(-c3ccccc3)cc(C(F)(F)F)c21	32.8 µM (inactive)	> 100 µM (inactive)	27.2 µM (inactive)		75.3 µM (inactive)	> 100 µM (inactive)		27.5 µM (inactive)	95.9 µM (inactive)	> 100 µM (inactive)	56.6 µM (inactive)	> 100 µM (inactive)	> 100 µM (inactive)	23.8 µM (inactive)	> 100 µM (inactive)	> 100 µM (inactive)	> 100 µM (inactive)	> 100 µM	> 100 µM (inactive)	> 100 µM (inactive)
C=C1CC(OC)(C(O)C(=O)N[C@H]2OCO[C@H]3C2O[C@H](C[C@H](O)COC)C(C)(C)C3OC)O[C@H](C)[C@@H]1C (stereo not given in full)	< 0.00773 µM (active)				< 0.00773 µM (active)			< 0.00773 µM (active)	< 0.00773 µM (active)	< 0.00773 µM (active)	< 0.00773 µM (active)		< 0.00773 µM (active)	< 0.00773 µM (active)		< 0.00773 µM (active)	< 0.00773 µM (active)	< 0.00773 µM		
COc1ccc(N[S+]([O-])C2CCCCC2)cc1 (stereo not given)	> 100 µM (inactive)	> 100 µM (inactive)		> 100 µM (inactive)	> 100 µM (inactive)	> 100 µM (inactive)	> 100 µM (inactive)	> 100 µM (inactive)	> 100 µM (inactive)		> 100 µM (inactive)		> 100 µM (inactive)	> 100 µM (inactive)	> 100 µM (inactive)	> 100 µM (inactive)	> 100 µM (inactive)	> 100 µM		
Cn1c(=O)n2c(-c3ccccc3)c(-c3ccccc3)n2c1=O	> 100 µM (inactive)		> 100 µM (inactive)	> 100 µM (inactive)	> 100 µM (inactive)	> 100 µM (inactive)	> 100 µM (inactive)		> 100 µM (inactive)	> 100 µM (inactive)	> 100 µM (inactive)	> 100 µM (inactive)	82 µM (inactive)	> 100 µM (inactive)	> 100 µM (inactive)	> 100 µM (inactive)	> 100 µM (inactive)	> 100 µM	> 100 µM (inactive)	
CC1CC2=C(C1)C(C1(C)C(=O)CC3C(C1=O)C3(C)C)C(C)C2=O (stereo not given)	> 100 µM (inactive)	> 100 µM (inactive)	> 100 µM (inactive)	> 100 µM (inactive)	> 100 µM (inactive)	> 100 µM (inactive)	> 100 µM (inactive)	> 100 µM (inactive)	> 100 µM (inactive)	> 100 µM (inactive)	> 100 µM (inactive)	> 100 µM (inactive)	99.5 µM (inactive)		> 100 µM (inactive)	> 100 µM (inactive)	> 100 µM (inactive)	> 100 µM	> 100 µM (inactive)	> 100 µM (inactive)
CC1=C(O)C(=O)[C@@H]2O[C@@H]2C1=O	12.1 µM (inactive)		5.57 µM (inactive)		6.5 µM (inactive)		6.14 µM (inactive)	3.46 µM (inactive)	11.1 µM (inactive)	7.13 µM (inactive)	19.3 µM (inactive)		22.3 µM (inactive)	10.7 µM (inactive)		4.72 µM (inactive)	32.8 µM (inactive)	7.01 µM	33.4 µM (inactive)	
CC1SC(=O)SC1C (stereo not given)				> 100 µM (inactive)		> 100 µM (inactive)		> 100 µM (inactive)	> 100 µM (inactive)		> 100 µM (inactive)	> 100 µM (inactive)	> 100 µM (inactive)	> 100 µM (inactive)	> 100 µM (inactive)	> 100 µM (inactive)	> 100 µM (inactive)	> 100 µM	> 100 µM (inactive)	> 100 µM (inactive)
O=C(CNc1cccc(Cl)c1)Nn1c(-c2ccccc2)nc2ccccc2c1=O	5.9 µM (inactive)	16 µM (inactive)	2.31 µM (inactive)	19.2 µM (inactive)	7.1 µM (inactive)	13.6 µM (inactive)		10 µM (inactive)	14 µM (inactive)	19.5 µM (inactive)	4.13 µM (inactive)	10.2 µM (inactive)	17.2 µM (inactive)		> 10 µM (inactive)	3.83 µM (inactive)	15.7 µM (inactive)		10.8 µM (inactive)	
COC(=O)[C@H]1C=NN[C@@H]1C(=O)N1[C@H]2CC3CC[C@@]2(CS1(=O)=O)C3(C)C		> 100 µM (inactive)	> 100 µM (inactive)	> 100 µM (inactive)		> 100 µM (inactive)	> 100 µM (inactive)	> 100 µM (inactive)	> 100 µM (inactive)	> 100 µM (inactive)	> 100 µM (inactive)	> 100 µM (inactive)	> 100 µM (inactive)	> 100 µM (inactive)	> 100 µM (inactive)	> 100 µM (inactive)	> 100 µM (inactive)	> 100 µM	> 100 µM (inactive)	
Cc1ccc(Nc2nc(NNC(=O)Cc3ccccc3)nc(NNC(=O)c3ccncc3)n2)cc1	> 10 µM (inactive)	> 10 µM (inactive)	> 10 µM (inactive)	> 10 µM (inactive)			> 10 µM (inactive)	> 10 µM (inactive)	> 10 µM (inactive)	> 10 µM (inactive)	> 10 µM (inactive)		8.49 µM (inactive)	> 10 µM (inactive)	> 10 µM (inactive)	> 10 µM (inactive)		> 10 µM	> 10 µM (inactive)	> 10 µM (inactive)
O=P1(Oc2ccc(Cl)cc2Cl)Oc2cc3ccccc3cc2O1	> 72.9 µM (inactive)		28.5 µM (inactive)		28.4 µM (inactive)		> 100 µM (inactive)	18.8 µM (inactive)	> 100 µM (inactive)	29.1 µM (inactive)	> 94.4 µM (inactive)		24.9 µM (inactive)	84.1 µM (inactive)		97.9 µM (inactive)	> 100 µM (inactive)	50 µM	> 100 µM (inactive)	
COc1cc2c(c3nc4ccccc4nc13)-c1ccc(SC)c(=O)cc1[C@@H](NC(C)=O)CC2	0.0364 µM (active)	0.129 µM (active)	0.149 µM (active)	0.0182 µM (active)	0.0545 µM (active)	1.15 µM (inactive)	0.0106 µM (active)	0.0387 µM (active)	0.069 µM (active)	0.82 µM (active)	0.0968 µM (active)	0.0479 µM (active)	6.3 µM (inactive)	6.9 µM (inactive)		0.0262 µM (active)	0.0475 µM (active)	1.23 µM	0.266 µM (active)	
CCN(CC)CCCNc1n[n+]([O-])c2ccccc2[n+]1[O-]	11.1 µM (inactive)	18.4 µM (inactive)	27.1 µM (inactive)		> 10 µM (inactive)	6.41 µM (inactive)	11.3 µM (inactive)	4.21 µM (inactive)	14.2 µM (inactive)	3.62 µM (inactive)	4.68 µM (inactive)	9.73 µM (inactive)	28.6 µM (inactive)	42.4 µM (inactive)	4.07 µM (inactive)	11.2 µM (inactive)	25.9 µM (inactive)	2.5 µM		14.3 µM (inactive)
O=C1N/C(=N/N=C/C(O)C(O)C(O)CO)N/C1=C\c1ccco1 (stereo not given)	> 100 µM (inactive)	> 100 µM (inactive)	> 100 µM (inactive)	> 100 µM (inactive)	> 100 µM (inactive)	> 100 µM (inactive)	> 100 µM (inactive)	> 100 µM (inactive)	> 100 µM (inactive)	> 100 µM (inactive)	> 100 µM (inactive)			> 100 µM (inactive)	> 100 µM (inactive)	> 100 µM (inactive)	0.0354 µM (active)	> 100 µM	> 100 µM (inactive)	> 100 µM (inactive)
